Reference: patent publication US20100055078A1, “METHODS OF MAKING A TRANSPLANTABLE BONE REPAIR SYSTEM USING MULTIPOTENT STEM CELLS” (The Government of the U.S.A, as represented by the …, priority 2008, published 2010)
Entries after “also recorded” stand apart in the source; their conditions may differ.

How the values were obtained:
Type in all cases: cell-based
[1] = test system: human mesenchymal stem cells (hMSC); experiment: Proliferation of mesenchymal stem cells, CyQuant relative cell number; details: of treatment
Protocol: Mesenchymal stem cells were isolated from bone marrow by adding 50 μl ROSETTESEP® human mesenchymal stem cell enrichment cocktail (StemCell Technologies, Vancouver, BC, Canada) to each ml of bone marrow. The mixture was incubated for 20 minutes at room temperature and then diluted 2× with PBS containing 2% FBS and 1 mM EDTA. The diluted sample was layered on FICOLL-PAQUE™ (StemCell Technologies, Vancouver, BC, Canada) and centrifuged at 300×g for 25 minutes. Enriched MSCs were removed from the FICOLL-PAQUE™:plasma interface, washed with PBS containing 2% FBS and 1 mM EDTA, and resuspended in αMEM culture medium.
Isolated MSCs were seeded to 96-well plates. […] 2,000 cells per well were seeded on 96-well plates. […] Relative cell number was obtained with a CYQUANT® Cell Proliferation kit (Invitrogen, Carlsbad, Calif.) according to the manufacturer's protocol.

[2] = test system: Wounded Mineralized MC3T3-E1 Cells; experiment: Total protein content of wounded mineralized cultures (Bio-Rad DC protein assay); details: normalized to the control culture; 24 hours of treatment
Protocol: Cell culture: Cloned MC3T3-E1 osteoblasts (Kodama et al., J. Cell. Physiol. 112:89-95, 1992) were maintained in alpha MEM medium (Catalog No. MT15012CV Fisher Scientific, Pittsburgh, Pa.) containing 10% fetal bovine serum (FBS), 1% antibiotic solution and 1% glutamine solution and subcultured every 3 to 4 days. The cells were subcultured by incubating with trypsin for five minutes and resuspending at a concentration of 3×10^5 cells/ml. For experiments, cells were grown in the same medium as above, using multiwell plates (35 mm for microscopy and 22 mm for thymidine uptake studies). Each well contained a round 12 mm glass cover slip. Cultures for microscopy contained a 22 mm diameter coverslip with a 12 mm coverslip on top. After three days, the cells reached confluence and differentiation medium (DM) was added. DM was alpha MEM medium containing 10% FBS, 1% antibiotic solution and 1% glutamine solution, supplemented with ascorbic acid (50 μg/ml) and β-glycerol phosphate (10 mM) to induce mineralization. The cultures were then incubated for 9 more days. Microscopic examination was done at this time, using Von Kossa stain to confirm mineralization of the cultures. A critical defect in the mineralized cell layers was created by removing the 12 mm coverslips under sterile conditions and then incubating the cultures for an additional 24 hours in DM containing 4% FBS with IGF-1 (20 ng/ml), FGF-2 (0.2 ng/ml), PDGF (3 ng/ml), TGFβ (2 ng/ml) or PGE2 (2 μg/ml). At least triplicate independent biological samples in multiple experiments were carried out for data collection.
Protein assay: Protein concentration was determined by Bio-Rad DC™ protein assay (Bio-Rad, Hercules, Calif.) according to the manufacturer's protocol.

MC3T3-E1 cells [3] = experiment: Cell growth on pre-treated nylon ribbons; details: up to 4 days, 0.1 mg/ml fibrinogen, HAHp, 50 ng/ml FGF-2
Protocol: Growth on Nylon Ribbons: 250,000 MC3T3-E1 osteoblast cells were seeded in 12-well plates containing 1 inch by 1 inch nylon ribbons pre-treated with 0.1 mg/ml fibrinogen or 1 mg/ml HA and 3 mg/ml heparin (HAHp) with or without 50 ng/ml FGF-2. Cells were visualized under 10× objective at 1 and 4 days after seeding.

MC3T3-E1 cells [4] = experiment: qRT-PCR gene expression in mineralizing cells treated with growth factor
Protocol: Cell Culture: MC3T3-E1 cells were grown and mineralized essentially as described in Example 1.
RNA Isolation: RNA was isolated using the RNeasy™ Mini kit (Qiagen, Valencia, Calif.) or TriReagent™ (Sigma-Aldrich, St. Louis, Mo.) according to the manufacturer's protocol.
Reverse Transcription: 1.5 μg of RNA was added to 30 μl reverse transcriptase (RT) reaction buffer containing 5 mM MgCl2, 10 mM Tris-HCl (pH 8.3), 50 mM KCl, 1 mM dNTPs, 2.5 μM oligo d(T) primer, 2.5 U/μl of MuLV RT, and 1 U/μl of RNase inhibitor. The RT reaction was incubated at room temperature for 10 min, 42° C. for 30 min, inactivated at 99° C. for 5 min, and cooled at 5° C. for 5 min.
Real-time Quantitative RT-PCR Reaction (qRT-PCR): 2 μl of cDNA from the RT reaction was added to 20 μl real-time quantitative polymerase chain reaction (qRT-PCR) mixture containing 10 μl of 2×SYBR® Green PCR Master Mix (Applied Biosystems, Foster City, Calif.) and 12 pmol oligonucleotide primers. PCR was carried out in a Bio-Rad MY iQ® Single-Color Real-Time PCR Detection System (Bio-Rad, Hercules, Calif.) at 50° C. for 2 min, 95° C. for 10 min to activate the Taq polymerase, followed by 50 amplification cycles, consisting of denaturation at 95° C. for 1 min 40 sec, annealing at 63° C. for 1 min 10 sec, and elongation at 72° C. for 1 min 40 sec. Fluorescence was measured and used for quantitative purposes. At the end of the amplification period, melting curve analysis was performed to confirm the specificity of the amplicon. RNA samples were normalized to a cyclophilin (CPHI) internal standard. Relative quantification of gene expression was calculated by using the 2^−(Ct gene T−Ct CPHI T)−(Ct gene 0 hr−Ct CPHI 0 hr) equation, where “Ct gene T” represents the calculated threshold cycle (Ct) of a time point of each sample other than 0 hr, or each treatment other than control. Relative gene abundance is calculated using 2^(Ct gene T−Ct CPHI T), resulting numbers were then multiplied by 10,000 for better graphical presentation. Primer sequences were previously described (Hughes-Fulford and Gilbertson, FASEB J. 13:S121-127, 1999; Hughes-Fulford et al., Gravit. Space Biol. Bull. 11:51-60, 1998; Tjandrawinata and Hughes-Fulford, Adv. Exp. Med. Biol. 407:163-170, 1997; Hughes-Fulford, Adv. Exp. Med. Biol. 400A:269-278, 1997; Hughes-Fulford and Lewis, Exp. Cell Res. 224:103-109, 1996). All data derived using qRT-PCR was from multiple experiments with triplicate independent biological samples.

[5] = 24 hours, FGF-2 5 ng/ml or BMP-2 100 ng/ml, corrected to cyclophilin

Substance: fibroblast growth factor-2 [FGF-2]
- optimum dose for proliferation [1]: 2.5 to 5 ng/mL
- Total Protein/Culture [2]: 1.49
- cell growth on nylon ribbon, in words (MC3T3-E1 cells [3]): Little or no cell proliferation
- Relative abundance of gene expression: ALP (MC3T3-E1 cells [4]; [5]): 13.39
- Relative abundance of gene expression: BMP-2 (MC3T3-E1 cells [4]; [5]): **0.06
- Relative abundance of gene expression: Collagen Type I (MC3T3-E1 cells [4]; [5]): **678.21
- Relative abundance of gene expression: Fibronectin (MC3T3-E1 cells [4]; [5]): *28432.19
- Relative abundance of gene expression: IGF-1 (MC3T3-E1 cells [4]; [5]): **50.65
- Relative abundance of gene expression: MMP3 (MC3T3-E1 cells [4]; [5]): **4.04
- Relative abundance of gene expression: Noggin (MC3T3-E1 cells [4]; [5]): *1.61
- Relative abundance of gene expression: OC (MC3T3-E1 cells [4]; [5]): **1.38
- Relative abundance of gene expression: RUNX2 (MC3T3-E1 cells [4]; [5]): **674.95
- Relative abundance of gene expression: TGFβ (MC3T3-E1 cells [4]; [5]): **245.40
- Relative abundance of gene expression: VEGFA (MC3T3-E1 cells [4]; [5]): **5132.66
- expression of genes associated with mineralization (col1a1, fn, bmp-2, oc, runx2, noggin), in words (MC3T3-E1 cells [4]; over 24 hours): significantly decreased; also recorded: significantly suppressed
- expression of igf-1, in words (MC3T3-E1 cells [4]; over 24 hours): significantly decreased
- expression of egr-1, fgf-2, cox-2, tgfβ, mmp3, vegfA and vegfr1, in words (MC3T3-E1 cells [4]; over a 24 hour period): dramatically induced
